Measurements: ChEMBL document CHEMBL1201862, “PubChem BioAssay data set” (2004)
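Step 1: Grow cells in 96-well plates. Step 2: Expose to compound for 48 hours at 5 concentrations. Step 3: Interpolate endpoints linearly; if unreached, use highest concentration. Abbreviation: GI50, concentration required for 50% inhibition of growth.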 Active and inactive are the calls of the source. No stated cut-off is given here; in the data, active = GI50 up to about 1.1 µM and inactive = higher.

Legend:
Experiment in all cases: growth of human tumour cells (NCI), 48 h
[1] = test system: M14
[2] = test system: COLO 205
[3] = test system: Hs-578T
[4] = test system: HCT-15
[5] = test system: CCRF-CEM
[6] = test system: SK-MEL-5
[7] = test system: TK-10
[8] = test system: HT-29
[9] = test system: SF-295
[10] = test system: A498
[11] = test system: SN12C
[12] = test system: HL-60
[13] = test system: OVCAR-4
[14] = test system: LOX IMVI
[15] = test system: RPMI-8226
[16] = test system: SNB-75
[17] = test system: SF-268
[18] = test system: OVCAR-8
[19] = test system: SF-539
[20] = test system: NCI-H226
[21] = test system: SR
[22] = test system: RXF 393
[23] = test system: K562
[24] = test system: MDA-MB-231
[25] = test system: UO-31
[26] = test system: A549
[27] = test system: OVCAR-5
[28] = test system: Malme-3M
[29] = test system: KM12
[30] = test system: SNB-19
[31] = test system: BT-549
[32] = test system: HOP-92
[33] = test system: U-251
[34] = test system: SK-OV-3
[35] = test system: HOP-62
[36] = test system: NCI-H460
[37] = test system: MOLT-4
[38] = test system: SK-MEL-2
[39] = test system: HCT-116
[40] = test system: MCF7
[41] = test system: MDA-N
[42] = test system: PC-3
[43] = test system: UACC-257
[44] = test system: SK-MEL-28
[45] = test system: ACHN
[46] = test system: T47D
[47] = test system: DU-145
[48] = test system: EKVX
[49] = test system: NCI/ADR-RES
[50] = test system: CAKI-1
[51] = test system: OVCAR-3
[52] = test system: IGROV-1
[53] = test system: 786-0
[54] = test system: NCI-H522
[55] = test system: MDA-MB-435
[56] = test system: NCI-H23

C(=N\c1nc2cc3sc(/N=C/c4cccs4)nc3cc2s1)/c1cccs1
GI50 [1]: > 100 µM (inactive)
GI50 [2]: 3.4 µM (inactive)
GI50 [3]: > 100 µM (inactive)
GI50 [4]: 73.5 µM
GI50 [5]: 11.5 µM (inactive)
GI50 [6]: 33 µM (inactive)
GI50 [7]: 26.2 µM (inactive)
GI50 [8]: 44.8 µM (inactive)
GI50 [9]: > 100 µM (inactive)
GI50 [10]: > 100 µM (inactive)
GI50 [11]: 72.9 µM (inactive)
GI50 [12]: 79.6 µM (inactive)
GI50 [13]: > 100 µM (inactive)
GI50 [14]: 66.5 µM (inactive)
GI50 [15]: > 100 µM (inactive)
GI50 [16]: > 100 µM (inactive)
GI50 [17]: > 100 µM (inactive)
GI50 [18]: > 100 µM (inactive)
GI50 [19]: > 100 µM (inactive)
GI50 [20]: 28.4 µM (inactive)
GI50 [21]: 26.1 µM (inactive)
GI50 [22]: > 100 µM (inactive)
GI50 [23]: > 100 µM (inactive)
GI50 [24]: > 100 µM (inactive)
GI50 [25]: > 100 µM (inactive)
GI50 [26]: 11.5 µM (inactive)
GI50 [27]: > 100 µM (inactive)
GI50 [28]: > 100 µM (inactive)
GI50 [29]: > 100 µM (inactive)
GI50 [30]: > 100 µM (inactive)
GI50 [31]: > 100 µM (inactive)
GI50 [32]: > 100 µM (inactive)
GI50 [33]: > 100 µM (inactive)
GI50 [34]: > 100 µM (inactive)
GI50 [35]: > 100 µM (inactive)
GI50 [36]: 5.36 µM (inactive)
GI50 [37]: 28.3 µM (inactive)
GI50 [38]: > 100 µM (inactive)
GI50 [39]: > 100 µM (inactive)
GI50 [40]: 33.4 µM (inactive)
GI50 [41]: > 100 µM (inactive)
GI50 [42]: > 100 µM (inactive)
GI50 [43]: 70.1 µM (inactive)
GI50 [44]: > 100 µM (inactive)
GI50 [45]: > 100 µM (inactive)
GI50 [46]: > 100 µM (inactive)
GI50 [47]: > 100 µM (inactive)
GI50 [48]: 34.4 µM (inactive)
GI50 [49]: > 100 µM (inactive)
GI50 [50]: > 100 µM (inactive)
GI50 [51]: > 100 µM (inactive)
GI50 [52]: > 100 µM (inactive)
GI50 [53]: > 100 µM (inactive)
GI50 [54]: 45.2 µM (inactive)
GI50 [55]: > 100 µM (inactive)
GI50 [56]: 69.2 µM (inactive)
